According to patent US7470684B2, “Spiropiperidine derivatives as NK3 antagonists” (Hoffmann-La Roche Inc., priority 2007, dated 2008):
Structures can show the parent of a compound that is named as a salt. Where two headings read alike, the source gives them in different places.

Target: T1, human NK3 receptor (Homo sapiens, UniProt P29371)
T1 construct: expressed in transfected cells; host or cells: HEK293 cells, transiently transfected; membranes
T1 sequence (P29371 1-465): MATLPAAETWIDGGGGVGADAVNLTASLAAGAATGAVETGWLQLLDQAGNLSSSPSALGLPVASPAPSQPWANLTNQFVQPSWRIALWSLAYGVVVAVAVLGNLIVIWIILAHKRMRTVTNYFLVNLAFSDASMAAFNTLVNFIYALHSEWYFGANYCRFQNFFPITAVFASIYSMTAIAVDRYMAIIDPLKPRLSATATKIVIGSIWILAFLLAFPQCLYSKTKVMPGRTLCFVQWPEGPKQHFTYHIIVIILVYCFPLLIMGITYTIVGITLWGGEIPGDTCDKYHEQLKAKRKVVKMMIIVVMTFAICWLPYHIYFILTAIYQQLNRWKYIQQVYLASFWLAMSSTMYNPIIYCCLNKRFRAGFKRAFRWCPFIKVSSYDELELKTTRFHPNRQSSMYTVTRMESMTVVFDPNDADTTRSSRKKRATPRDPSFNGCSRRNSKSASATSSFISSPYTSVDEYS
Test: [3H]SR142801 competition binding assay
Description: [^3H]SR142801 Competition Binding Assay
hNK3 receptor binding experiment were performed using [^3H]SR142801 (Catalog No. TRK1035, specific activity: 74.0 Ci/mmol, Amersham, GE Healthcare UK limited, Buckinghamshire, UK) and membrane isolated from HEK293 cells transiently expressing recombinant human NK3 receptor. After thawing, the membrane homogenates were centrifuged at 48,000×g for 10 min at 4° C., the pellets were resuspended in the 50 mM Tris-HCl, 4 mM MnCl2, 1 μM phosphoramidon, 0.1% BSA binding buffer at pH 7.4 to a final assay concentration of 5 μg protein/well. For inhibition experiments, membranes were incubated with [^3H]SR142801 at a concentration equal to KD value of radioligand and 10 concentrations of the inhibitory compound (0.0003-10 μM) (in a total reaction volume of 500 μl) for 75 min at room temperature (RT). At the end of the incubation, membranes were filtered onto unitfilter (96-well white microplate with bonded GF/C filter preincubated 1 h in 0.3% PEI+0.3% BSA, Packard BioScience, Meriden, Conn.) with a Filtermate 196 harvester (Packard BioScience) and washed 4 times with ice-cold 50 mM Tris-HCl, pH 7.4 buffer. Nonspecific binding was measured in the presence of 10 μM SB222200 for both radioligands. The radioactivity on the filter was counted (5 min) on a Packard Top-count microplate scintillation counter with quenching correction after addition of 45 μl of microscint 40 (Canberra Packard S.A., Zürich, Switzerland) and shaking for 1 h. Inhibition curves were fitted according to the Hill equation: y=100/(1+(x/IC50)^nH), where nH=slope factor using Excel-fit 4 software (Microsoft). IC50 values were derived from the inhibition curve and the affinity constant (Ki) values were calculated using the Cheng-Prussoff equation Ki=IC50/(1+[L]/KD) where [L] is the concentration of radioligand and KD is its dissociation constant at the receptor, derived from the saturation isotherm. All experiments were performed in duplicate and the mean±standard error (SEM) of the individual Ki values was calculated.

[1] = hNK3 Ki, [3H]SR142801 displacement, membranes of HEK293 cells transiently expressing recombinant human NK3 receptor

| Compound | Ki [1] [nM] | further results |
| --- | --- | --- |
| CN(Cc1ccccc1)C(=O)C(CCN1CCC2(CC1)OC(=O)Nc1ccc(F)cc12)c1ccc(Cl)c(Cl)c1 (centres unmarked) [Example 1, N-benzyl-2-(3,4-dichlorophenyl)-4-(6-fluoro-2-oxo-1,2-dihydro-1′H-spiro[3,1-benzoxazine-4,4′-piperidin]-1′-yl)-N-methylbutanamide hydrochloride] | 11.2 |  |
| CCN(Cc1ccccc1)C(=O)C(CCN1CCC2(CC1)OC(=O)Nc1ccc(F)cc12)c1ccc(Cl)c(Cl)c1 (centres unmarked) [Example 6, N-benzyl-2-(3,4-dichlorophenyl)-N-ethyl-4-(6-fluoro-2-oxo-1,2-dihydro-1′H-spiro[3,1-benzoxazine-4,4′-piperidin]-1′-yl)butanamide] | 62.8 |  |
| O=C1Nc2ccc(F)cc2C2(CCN(CCC(C(=O)NCc3ccc(Cl)cc3)c3ccc(Cl)c(Cl)c3)CC2)O1 (centres unmarked) [Example 8, N-(4-chlorobenzyl)-2-(3,4-dichlorophenyl)-4-(6-fluoro-2-oxo-1,2-dihydro-1′H-spiro[3,1-benzoxazine-4,4′-piperidin]-1′-yl)butanamide] | 17 |  |
| Cc1ccc(CNC(=O)C(CCN2CCC3(CC2)OC(=O)Nc2ccc(F)cc23)c2ccc(Cl)c(Cl)c2)o1 (centres unmarked) [Example 9, 2-(3,4-dichlorophenyl)-4-(6-fluoro-2-oxo-1,2-dihydro-1′H-spiro[3,1-benzoxazine-4,4′-piperidin]-1′-yl)-N-[(5-methyl-2-furyl)methyl]butanamide] |  | Ki ([3H]SR142801 displacement, membranes of HEK293 cells transiently expressing recombinant human NK3 receptor, read-out: hNK3 Ki): 91.4 nM |
| CCN(Cc1ccccc1F)C(=O)C(CCN1CCC2(CC1)OC(=O)Nc1ccc(F)cc12)c1ccc(Cl)c(Cl)c1 (centres unmarked) [Example 12, 2-(3,4-dichlorophenyl)-N-ethyl-N-(2-fluorobenzyl)-4-(6-fluoro-2-oxo-1,2-dihydro-1′H-spiro[3,1-benzoxazine-4,4′-piperidin]-1′-yl)butanamide] | 31.2 |  |
| CCCCN(C)C(=O)C(CCN1CCC2(CC1)OC(=O)Nc1ccc(F)cc12)c1ccc(Cl)c(Cl)c1 (centres unmarked) [Example 14, N-butyl-2-(3,4-dichlorophenyl)-4-(6-fluoro-2-oxo-1,2-dihydro-1′H-spiro[3,1-benzoxazine-4,4′-piperidin]-1′-yl)-N-methylbutanamide] |  | Ki: 90.8 nM |
| CN(Cc1ccc(Cl)cc1)C(=O)C(CCN1CCC2(CC1)OC(=O)Nc1ccc(F)cc12)c1ccc(Cl)c(Cl)c1 (centres unmarked) [Example 15, N-(4-chlorobenzyl)-2-(3,4-dichlorophenyl)-4-(6-fluoro-2-oxo-1,2-dihydro-1′H-spiro[3,1-benzoxazine-4,4′-piperidin]-1′-yl)-N-methylbutanamide] | 3.7 |  |
| CN(Cc1ccccc1Cl)C(=O)C(CCN1CCC2(CC1)OC(=O)Nc1ccc(F)cc12)c1ccc(Cl)c(Cl)c1 (centres unmarked) [Example 17, N-(2-chlorobenzyl)-2-(3,4-dichlorophenyl)-4-(6-fluoro-2-oxo-1,2-dihydro-1′H-spiro[3,1-benzoxazine-4,4′-piperidin]-1′-yl)-N-methylbutanamide] | 6.7 |  |
| CCN(Cc1ccc(C)cc1)C(=O)C(CCN1CCC2(CC1)OC(=O)Nc1ccc(F)cc12)c1ccc(Cl)c(Cl)c1 (centres unmarked) [Example 18, 2-(3,4-dichlorophenyl)-N-ethyl-4-(6-fluoro-2-oxo-1,2-dihydro-1′H-spiro[3,1-benzoxazine-4,4′-piperidin]-1′-yl)-N-(4-methylbenzyl)butnamide] | 15.7 |  |
| CN(Cc1cccc(Cl)c1)C(=O)C(CCN1CCC2(CC1)OC(=O)Nc1ccc(F)cc12)c1ccc(Cl)c(Cl)c1 (centres unmarked) [Example 19, N-(3-chlorobenzyl)-2-(3,4-dichlorophenyl)-4-(6-fluoro-2-oxo-1,2-dihydro-1′H-spiro[3,1-benzoxazine-4,4′-piperidin]-1′-yl)-N-methylbutanamide] | 5.2 |  |
| CN(Cc1cccc(Cl)c1)C(=O)C(CCN1CCC2(CC1)OC(=O)Nc1ccc(F)cc12)c1ccc(F)cc1 (centres unmarked) [Example 25, N-(3-chlorobenzyl)-4-(6-fluoro-2-oxo-1,2-dihydro-1′H-spiro[3,1-benzoxazine-4,4′-piperidin]-1′-yl)-2-(4-fluorophenyl)-N-methylbutanamide] | 59.4 |  |
| CN(Cc1ccc(Cl)cc1)C(=O)C(CCN1CCC2(CC1)OC(=O)Nc1ccc(F)cc12)c1ccc(F)cc1 (centres unmarked) [Example 26, N-(4-chlorobenzyl)-4-(6-fluoro-2-oxo-1,2-dihydro-1′H-spiro[3,1-benzoxazine-4,4′-piperidin]-1′-yl)-2-(4-fluorophenyl)-N-methylbutanamide] | 38.3 |  |
| CN(Cc1ccccc1Cl)C(=O)C(CCN1CCC2(CC1)OC(=O)Nc1ccc(F)cc12)c1ccc(F)cc1 (centres unmarked) [Example 27, N-(2-chlorobenzyl)-4-(6-fluoro-2-oxo-1,2-dihydro-1′H-spiro[3,1-benzoxazine-4,4′-piperidin]-1′-yl)-2-(4-fluorophenyl)-N-methylbutanamide] | 38.5 |  |
| CCN(Cc1ccccc1)C(=O)C(CCN1CCC2(CC1)OC(=O)N(C)c1ccc(F)cc12)c1ccc(Cl)c(Cl)c1 (centres unmarked) [Example 29, N-benzyl-2-(3,4-dichlorophenyl)-N-ethyl-4-(6-fluoro-1-methyl-2-oxo-1,2-dihydro-1′H-spiro[3,1-benzoxazine-4,4′-piperidin]-1′-yl)-butanamide] | 6.7 |  |
| Cc1ccc(CNC(=O)C(CCN2CCC3(CC2)OC(=O)N(C)c2ccc(F)cc23)c2ccc(Cl)c(Cl)c2)cc1 (centres unmarked) [Example 31, 2-(3,4-dichlorophenyl)-4-(6-fluoro-1-methyl-2-oxo-1,2-dihydro-1′H-spiro[3,1-benzoxazine-4,4′-piperidin]-1′-yl)-N-(4-methylbenzyl)butanamide] | 5.8 |  |
| CN1C(=O)OC2(CCN(CCC(C(=O)NCc3ccccc3)c3ccc(Cl)c(Cl)c3)CC2)c2cc(F)ccc21 (centres unmarked) [Example 32, N-benzyl-2-(3,4-dichlorophenyl)-4-(6-fluoro-1-methyl-2-oxo-1,2-dihydro-1′H-spiro[3,1-benzoxazine-4,4′-piperidin]-1′-yl)-butanamide] | 3.9 |  |
| CN1C(=O)OC2(CCN(CCC(C(=O)NCc3ccc(S(C)(=O)=O)cc3)c3ccc(Cl)c(Cl)c3)CC2)c2cc(F)ccc21 (centres unmarked) [Example 33, 2-(3,4-dichlorophenyl)-4-(6-fluoro-1-methyl-2-oxo-1,2-dihydro-1′H-spiro[3,1-benzoxazine-4,4′-piperidin]-1′-yl)-N-[4-(methylsulfonyl)benzyl]butanamide] | 54.7 |  |
| CN1C(=O)OC2(CCN(CCC(C(=O)NCc3ccc(Cl)cc3)c3ccc(Cl)c(Cl)c3)CC2)c2cc(F)ccc21 (centres unmarked) [Example 34, N-(4-chlorobenzyl)-2-(3,4-dichlorophenyl)-4-(6-fluoro-1-methyl-2-oxo-1,2-dihydro-1′H-spiro[3,1-benzoxazine-4,4′piperidin]-1′-yl)-butanamide] | 3.3 |  |
| CN1C(=O)OC2(CCN(CCC(C(=O)N3CCc4ccc(F)cc4C3)c3ccc(Cl)c(Cl)c3)CC2)c2cc(F)ccc21 (centres unmarked) [Example 38, 1′-[3-(3,4-dichlorophenyl)-4-(7-fluoro-3,4-dihydroisoquinolin-2(1H)-yl)-4-oxobutyl]-6-fluoro-1-methylspiro[3,1-benzoxazine-4,4′-piperidin]-2(1H)-one] |  | Ki: 48.7 nM |
| CCN(Cc1ccc(C)cc1)C(=O)C(CCN1CCC2(CC1)OC(=O)N(C)c1ccc(F)cc12)c1ccc(Cl)c(Cl)c1 (centres unmarked) [Example 39, 2-(3,4-dichlorphenyl)-N-ethyl-4-(6-fluoro-1-methyl-2-oxo-1,2-dihydro-1′H-spiro[3,1-benzoxazine-4,4′-piperidin]-1′-yl)-N-(4-methylbenzyl)butanamide] | 4.2 |  |
